{
  "source": "patent US20220361493A1",
  "about": "“HERBICIDE COMPOSITION” (UPL CORPORATION LIMITED, priority 2019, published 2022)",
  "experiment_in_all_cases": "Herbicidal efficacy, % weed control",
  "format_in_all_cases": "in vivo",
  "key": {"[1]": {"test_system": "Cenchrus echinatus", "conditions": "35 days after administration", "from_the_text": "(§1) This effectiveness of all treatments can be evaluated according to Colby's equation. In the Colby's equation given below, E is the expected efficacy of combination of Propisochlor and another herbicide, X is the observed efficacy of Propisochlor and Y is the observed efficacy of other herbicide. Observed efficacy values i.e. X and Y are % weed control for Propisochlor and another herbicide. If observed efficacy of combination of Propisochlor and other herbicide is greater than its expected efficacy, then combination is determined to be synergistic. If observed efficacy is equal to or less than expected efficacy, then combination is determined to be non-synergistic.\n(§2) Experiments were carried out to evaluate the efficacy of combinations of present invention.\n(§3) Herbicidal activity of synergistic mixtures of the combinations of present invention is represented in below tables."}, "[2]": {"test_system": "Commelina benghalensis", "conditions": "35 days after administration", "from_the_text": "as §1, §2, §3"}, "[3]": {"test_system": "Ipomoea grandifolia", "from_the_text": "as §1, §2, §3"}, "[4]": {"test_system": "Brachiaria decumbens", "conditions": "35 days after administration", "from_the_text": "as §1, §2, §3"}, "[5]": {"test_system": "Brachiaria plantaginea", "conditions": "35 days after administration, Table 1", "from_the_text": "as §1, §2, §3"}, "[6]": {"test_system": "Ipomoea hederifolia", "conditions": "35 days after administration, Table 2", "from_the_text": "as §1, §2, §3"}, "[7]": {"test_system": "Eleusine indica", "conditions": "35 days after administration, Table 2", "from_the_text": "as §1, §2, §3"}, "[8]": {"test_system": "Spermacoce verticillata", "conditions": "35 days after administration, Table 2", "from_the_text": "as §1, §2, §3"}},
  "data": [
    {"smiles": "CCSC(C)CC1CC(=O)C(/C(CC)=N/OC/C=C/Cl)=C(O)C1", "note": "(stereo not drawn) [Clethodim]", "values": [
      {"measurement": "% Weed control Cenchrus echinatus", "setting": "[1]; 120 g ai/ha, Table 4", "result": 0.0, "unit": "%"}
    ]},
    {"smiles": "CN(C)C(=O)Nc1ccc(Cl)c(Cl)c1", "note": "[Diuron]", "values": [
      {"measurement": "% Weed control Cenchrus echinatus", "setting": "[1]; 1000 g ai/ha, Table 9", "result": 5.0, "unit": "%"},
      {"measurement": "% Weed control Cenchrus echinatus", "setting": "[1]; 2000 g ai/ha, Table 9", "result": 1.3, "unit": "%"},
      {"measurement": "% Weed control Commelina benghalensis", "setting": "[2]; 500 g ai/ha, Table 8", "result": 0, "unit": "%"},
      {"measurement": "% Weed control Ipomoea grandifolia", "setting": "[3]; 500 g ai/ha, 21 days after administration, Table 7", "result": 0.0, "unit": "%"},
      {"measurement": "% Weed control Ipomoea grandifolia", "setting": "[3]; 1000 g ai/ha, 35 days after administration, Table 9", "result": 0.0, "unit": "%"},
      {"measurement": "% Weed control Ipomoea grandifolia", "setting": "[3]; 2000 g ai/ha, 35 days after administration, Table 9", "result": 0.0, "unit": "%"},
      {"measurement": "% Weed control Brachiaria decumbens", "setting": "[4]; 1000 g ai/ha, Table 9", "result": 3.8, "unit": "%"},
      {"measurement": "% Weed control Brachiaria decumbens", "setting": "[4]; 2000 g ai/ha, Table 9", "result": 12.5, "unit": "%"}
    ]},
    {"smiles": "C#CCN1C(=O)COc2cc(F)c(N3C(=O)C4=C(CCCC4)C3=O)cc21", "note": "[Flumioxazin]", "values": [
      {"measurement": "% Weed control Commelina benghalensis", "setting": "[2]; 50 g ai/ha, Table 1", "result": 90.25, "unit": "%"},
      {"measurement": "% Weed control Brachiaria plantaginea", "setting": "[5]; 50 g ai/ha", "result": 53.75, "unit": "%"},
      {"measurement": "% Weed control Brachiaria decumbens", "setting": "[4]; 50 g ai/ha, Table 1", "result": 63.75, "unit": "%"}
    ]},
    {"smiles": "COC(=O)[C@@H](C)Oc1ccc(Oc2ncc(C(F)(F)F)cc2Cl)cc1", "note": "[Haloxyfop-p-methyl]", "values": [
      {"measurement": "% Weed control Brachiaria decumbens", "setting": "[4]; 62.1 g ai/ha, Table 3", "result": 11.3, "unit": "%"}
    ]},
    {"smiles": "CN(C)c1nc(=O)n(C2CCCCC2)c(=O)n1C", "note": "[Hexazinone]", "values": [
      {"measurement": "% Weed control Commelina benghalensis", "setting": "[2]; 125 g ai/ha, Table 6", "result": 45.0, "unit": "%"},
      {"measurement": "% Weed control Brachiaria decumbens", "setting": "[4]; 125 g ai/ha, Table 6", "result": 11.3, "unit": "%"}
    ]},
    {"smiles": "CCc1cccc(C)c1N(COC(C)C)C(=O)CCl", "note": "[Propisochlor]", "values": [
      {"measurement": "% Weed control Ipomoea hederifolia", "setting": "[6]; 525 g ai/ha", "result": 26.25, "unit": "%"},
      {"measurement": "% Weed control Ipomoea hederifolia", "setting": "[6]; 675 g ai/ha", "result": 27, "unit": "%"},
      {"measurement": "% Weed control Cenchrus echinatus", "setting": "[1]; 540 g ai/ha, Table 4", "result": 71.3, "unit": "%"},
      {"measurement": "% Weed control Cenchrus echinatus", "setting": "[1]; 540 g ai/ha, Table 5", "result": 71.3, "unit": "%"},
      {"measurement": "% Weed control Cenchrus echinatus", "setting": "[1]; 540 g ai/ha, Table 9", "result": 91.8, "unit": "%"},
      {"measurement": "% Weed control Cenchrus echinatus", "setting": "[1]; 1080 g ai/ha, Table 4", "result": 88.8, "unit": "%"},
      {"measurement": "% Weed control Cenchrus echinatus", "setting": "[1]; 1080 g ai/ha, Table 5", "result": 88.8, "unit": "%"},
      {"measurement": "% Weed control Commelina benghalensis", "setting": "[2]; 1080 g ai/ha, Table 6", "result": 90.8, "unit": "%"},
      {"measurement": "% Weed control Commelina benghalensis", "setting": "[2]; 1080 g ai/ha, Table 8", "result": 90.8, "unit": "%"},
      {"measurement": "% Weed control Commelina benghalensis", "setting": "[2]; 1080 g ai/ha, Table 10", "result": 90.8, "unit": "%"},
      {"measurement": "% Weed control Commelina benghalensis", "setting": "[2]; 1200 g ai/ha, Table 1", "result": 92.00, "unit": "%"},
      {"measurement": "% Weed control Ipomoea grandifolia", "setting": "[3]; 540 g ai/ha, 21 days after administration, Table 7", "result": 7.5, "unit": "%"},
      {"measurement": "% Weed control Ipomoea grandifolia", "setting": "[3]; 540 g ai/ha, 35 days after administration, Table 9", "result": 0.0, "unit": "%"},
      {"measurement": "% Weed control Ipomoea grandifolia", "setting": "[3]; 540 g ai/ha, 35 days after administration, Table 11", "result": 53.8, "unit": "%"},
      {"measurement": "% Weed control Ipomoea grandifolia", "setting": "[3]; 1080 g ai/ha, 21 days after administration, Table 7", "result": 22.5, "unit": "%"},
      {"measurement": "% Weed control Ipomoea grandifolia", "setting": "[3]; 1080 g ai/ha, 35 days after administration, Table 10", "result": 45.0, "unit": "%"},
      {"measurement": "% Weed control Ipomoea grandifolia", "setting": "[3]; 1080 g ai/ha, 35 days after administration, Table 11", "result": 55.50, "unit": "%"},
      {"measurement": "% Weed control Brachiaria plantaginea", "setting": "[5]; 1200 g ai/ha", "result": 84.50, "unit": "%"},
      {"measurement": "% Weed control Eleusine indica", "setting": "[7]; 525 g ai/ha", "result": 99.75, "unit": "%"},
      {"measurement": "% Weed control Eleusine indica", "setting": "[7]; 675 g ai/ha", "result": 100.00, "unit": "%"},
      {"measurement": "% Weed control Brachiaria decumbens", "setting": "[4]; 540 g ai/ha, Table 9", "result": 68.8, "unit": "%"},
      {"measurement": "% Weed control Brachiaria decumbens", "setting": "[4]; 1080 g ai/ha, Table 3", "result": 92.0, "unit": "%"},
      {"measurement": "% Weed control Brachiaria decumbens", "setting": "[4]; 1080 g ai/ha, Table 6", "result": 75.0, "unit": "%"},
      {"measurement": "% Weed control Brachiaria decumbens", "setting": "[4]; 1200 g ai/ha, Table 1", "result": 85.75, "unit": "%"},
      {"measurement": "% Weed control Spermacoce verticillata", "setting": "[8]; 525 g ai/ha", "result": 92.75, "unit": "%"},
      {"measurement": "% Weed control Spermacoce verticillata", "setting": "[8]; 675 g ai/ha", "result": 95.75, "unit": "%"}
    ]},
    {"smiles": "CCOC(=O)[C@@H](C)Oc1ccc(Oc2cnc3cc(Cl)ccc3n2)cc1", "note": "[Quizalafop-p-ethyl]", "values": [
      {"measurement": "% Weed control Cenchrus echinatus", "setting": "[1]; 87.5 g ai/ha, Table 5", "result": 77.5, "unit": "%"}
    ]},
    {"smiles": "Cc1nn(-c2cc(NS(C)(=O)=O)c(Cl)cc2Cl)c(=O)n1C(F)F", "note": "[Sulfentrazone]", "values": [
      {"measurement": "% Weed control Ipomoea hederifolia", "setting": "[6]; 75 g ai/ha", "result": 98.00, "unit": "%"},
      {"measurement": "% Weed control Eleusine indica", "setting": "[7]; 75 g ai/ha", "result": 90.00, "unit": "%"},
      {"measurement": "% Weed control Spermacoce verticillata", "setting": "[8]; 75 g ai/ha", "result": 92.25, "unit": "%"}
    ]},
    {"smiles": "CNC(=O)N(C)c1nnc(C(C)(C)C)s1", "note": "[Tebuthiuron]", "values": [
      {"measurement": "% Weed control Commelina benghalensis", "setting": "[2]; 400 g ai/ha, Table 10", "result": 0.0, "unit": "%"},
      {"measurement": "% Weed control Ipomoea grandifolia", "setting": "[3]; 400 g ai/ha, 35 days after administration, Table 10", "result": 12.5, "unit": "%"}
    ]},
    {"smiles": "CCCN(CCC)c1c([N+](=O)[O-])cc(C(F)(F)F)cc1[N+](=O)[O-]", "note": "[Trifluralin]", "values": [
      {"measurement": "% Weed control Ipomoea grandifolia", "setting": "[3]; 300 g ai/ha, 35 days after administration, Table 11", "result": 0.0, "unit": "%"}
    ]}
  ]
}
